From ChEMBL document CHEMBL1201862, “PubChem BioAssay data set” (2004) come the findings set out here.

Assay [1] addresses T1, Polyadenylate-binding protein 1 (Homo sapiens, UniProt P11940). Put plainly: MLLE binding blockers, Cy5 peptide tracer – biochemical, fluorescence polarization, Cy5-PAM2 peptide, secondary, miRNA deadenylation inhibitor project, dose response (AID 602260). Particulars: read-out: IC50_Mean. It is filed as functional.
Assay [2] deals with T1, Polyadenylate-binding protein 1. Put plainly: MLLE domain peptide-binding blockers, IC50 – biochemical, fluorescence polarization, FITC-PAM2 peptide, dose response (AID 602259). It is filed as functional. The settings on record: read-out: IC50_Mean.
For another assay, the system named is H9c2. Nature of the assay: cells. In kind it is functional, cell-based. The settings on record: Rattus norvegicus, H9c2, Myocardium.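 Note: confirmatory concentration-response retest of ultra-high-throughput screening hits for modulation of myocardial damage; cell death induced by hydrogen peroxide oxidative stress; compound pretreatment for 60 min then peroxide exposure for 2 h; potency is for protecting the cells against peroxide damage rather than for killing them.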
Assay [3] is described as follows: Luminescence Cell-Based Dose Response HTS to Identify Inhibitors of 5'UTR Stem-Loop Driven Prion Protein mRNA Translation in H4 Neuroglioblastoma Cells. [Related pubchem assays: 1827 (Project Summary), 1813 (Primary HTS)]. In kind it is functional.
The nature of assay [4]: luciferase reporter signal suppression in cells – H4 neuroglioma cells, luminescence, dose response (AID 1990). It is filed as functional, cell-based. On the technique in general: A reporter such as luciferase makes a cellular process visible.
Assay [5] in a line: alpha-synuclein stem-loop luciferase translation blockers – H4 neuroglioma cells, luminescence, confirmation (AID 1988). In kind it is functional, cell-based.
Assay [6] in a line: Luminescence Cell-Based Dose Retest to Confirm Inhibitors of Cancer Stem Cells. [Related pubchem assays (depositor defined):AID2717, AID2721]. It is filed as functional. The settings on record: Homo sapiens.
A short description of assay [7]: NIH-3T3 fibroblast cytotoxicity, dose response, cytotoxicity control, cell-based, fluorescence, Alamar Blue, secondary assay (AID 2327).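 Note: NIH-3T3 mouse fibroblasts cultured with fluconazole at 8 µg/mL.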 It is filed as functional. (In general: Alamar Blue is a resazurin reagent that responds to reducing activity.)
A short description of assay [8]: fluconazole-exposed Candida albicans growth modulators – fluorescence, retest, confirmation (AID 2467). In kind it is functional, cell-based.
Assay [9] deals with Streptococcus sp. 'group A'. Put plainly: Streptococcus pyogenes SK(-)GAS viability under kanamycin – luminescence, BacTiterGlo, confirmation, counter-screen for streptokinase expression inhibitor project, dose response (AID 1900). In kind it is functional, organism-based. In general terms: The purpose of a counterscreen is to sort out artefacts and off-target activity.
The target in a further assay is T2, Streptokinase A (Streptococcus pyogenes serotype M1, UniProt P10520).
T2 sequence (P10520 whole entry): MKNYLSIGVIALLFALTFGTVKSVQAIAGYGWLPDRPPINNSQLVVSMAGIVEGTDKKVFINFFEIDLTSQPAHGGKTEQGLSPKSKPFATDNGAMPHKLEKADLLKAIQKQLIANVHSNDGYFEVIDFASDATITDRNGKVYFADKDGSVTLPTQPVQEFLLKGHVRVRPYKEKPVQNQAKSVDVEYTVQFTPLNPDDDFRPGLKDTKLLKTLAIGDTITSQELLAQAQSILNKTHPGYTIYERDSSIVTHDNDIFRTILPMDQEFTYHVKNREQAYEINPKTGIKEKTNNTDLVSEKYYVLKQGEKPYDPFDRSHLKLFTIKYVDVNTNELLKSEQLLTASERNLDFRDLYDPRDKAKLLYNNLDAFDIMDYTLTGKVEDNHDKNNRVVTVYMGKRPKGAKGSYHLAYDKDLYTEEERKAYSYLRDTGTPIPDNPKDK
Nature of the assay: viability-normalized secreted streptokinase activity reduction – plasminogen activation absorbance, OD405, dose response (AID 1914).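 Note: secreted streptokinase activity via plasminogen activation per viability signal from cell pellet.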 It is filed as functional, Streptococcus pyogenes M1 GAS.

The test system of the next assay is Streptococcus. Nature of the assay: GAS UMAA2166 growth inhibition – luminescence, BacTiterGlo, counter-screen for streptokinase expression inhibitor project, dose response (AID 1915).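 Note: potency for reduction of bacterial viability or growth.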 In kind it is functional, organism-based.
The nature of assay [10]: Trypanosoma cruzi growth suppression in host cells – NIH3T3 host cells, beta-gal luminescence, confirmation (AID 2044).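 Note: intracellular parasites grown in NIH/3T3 mouse fibroblasts as host cells; luminescent beta-galactosidase reporter signal from transgenic T. cruzi replicating inside host cells; inhibitors lower the luminescence signal.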 It is filed as functional, cell-based.
Assay [11] deals with T3, Rac GTPase-activating protein 1 (Homo sapiens, UniProt Q9H0H5).
T3 sequence (Q9H0H5 whole entry): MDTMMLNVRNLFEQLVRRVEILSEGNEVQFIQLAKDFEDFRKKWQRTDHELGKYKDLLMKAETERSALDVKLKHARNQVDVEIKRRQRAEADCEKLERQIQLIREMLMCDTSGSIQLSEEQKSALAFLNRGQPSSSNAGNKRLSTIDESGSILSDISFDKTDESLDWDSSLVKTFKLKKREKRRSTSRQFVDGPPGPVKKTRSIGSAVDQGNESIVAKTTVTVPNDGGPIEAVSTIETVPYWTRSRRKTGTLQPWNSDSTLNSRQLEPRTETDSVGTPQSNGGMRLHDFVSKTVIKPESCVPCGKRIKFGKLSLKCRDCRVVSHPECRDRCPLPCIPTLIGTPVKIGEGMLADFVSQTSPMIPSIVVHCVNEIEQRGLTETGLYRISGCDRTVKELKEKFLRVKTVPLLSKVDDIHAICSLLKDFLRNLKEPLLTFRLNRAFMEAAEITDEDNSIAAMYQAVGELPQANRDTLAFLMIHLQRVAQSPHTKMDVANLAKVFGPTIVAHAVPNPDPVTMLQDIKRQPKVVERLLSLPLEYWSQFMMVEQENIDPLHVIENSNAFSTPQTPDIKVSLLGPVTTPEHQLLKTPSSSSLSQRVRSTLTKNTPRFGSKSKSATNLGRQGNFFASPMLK
Nature of the assay: blockers of MgcRacGAP-driven Rac1 GTP hydrolysis – biochemical, ADP Hunter fluorescence, primary and confirmatory, confirmation (AID 624330). It is filed as functional.

A short description of assay [12]: NIH3T3 cell viability loss – ATP luminescence, mouse fibroblasts, counter-screen, dose response (AID 2010).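 Note: cells exposed to compound for about 90 hours before reading.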 In kind it is functional, cell-based.
The next assay deals with Paired box protein Pax-8 (Homo sapiens, UniProt Q06710). Nature of the assay: PAX8 transcriptional activity inhibition in RMG-I – RMG-I cells, luciferase, cherry-pick, dose response (AID 687027).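 Note: luciferase reporter driven by Pax8 target thyroperoxidase promoter measured by SteadyGlo luminescence.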 It is filed as functional, cell-based.
Assay [13] in a line: Luminescence Cell-Based Dose Confirmation HTS to Identify Activators of 5'UTR Stem-Loop Driven Alpha-Synuclein mRNA Translation in H4 Neuroglioblastoma Cells. [Related pubchem assays: 1829 (Project Summary), 1814 (Primary HTS)]. It is filed as functional.
A further assay relates to H4. Put plainly: Luminescence Cell-Based Dose Response HTS to Identify Activators of 5'UTR Stem-Loop Driven Prion Protein mRNA Translation in H4 Neuroglioblastoma Cells. [Related pubchem assays: 1829 (Project Summary), 1814 (Primary HTS)]. It is filed as functional. The settings on record: Homo sapiens.
Assay [14] is described as follows: Luminescence Cell-Based Dose Response HTS to Identify Activators of Luciferase Translation or Activity in H4 […] Cells. [Related pubchem assays: 1829 (Project Summary), 1814 (Primary HTS)]. In kind it is functional.
A further assay has as its target Cytochrome P450 3A4 (Homo sapiens, UniProt P08684).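 Note: CYP3A4 tested as one member of a cytochrome P450 panel screen.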

Molecules are shown by their SMILES. Active and inactive are the calls of the source. Cut-off read from the data, not from the text of the source, for most assays here: actives have a measured EC50 and inactives only a lower limit.

T1 sequence (P11940 whole entry, the tested form may be a part): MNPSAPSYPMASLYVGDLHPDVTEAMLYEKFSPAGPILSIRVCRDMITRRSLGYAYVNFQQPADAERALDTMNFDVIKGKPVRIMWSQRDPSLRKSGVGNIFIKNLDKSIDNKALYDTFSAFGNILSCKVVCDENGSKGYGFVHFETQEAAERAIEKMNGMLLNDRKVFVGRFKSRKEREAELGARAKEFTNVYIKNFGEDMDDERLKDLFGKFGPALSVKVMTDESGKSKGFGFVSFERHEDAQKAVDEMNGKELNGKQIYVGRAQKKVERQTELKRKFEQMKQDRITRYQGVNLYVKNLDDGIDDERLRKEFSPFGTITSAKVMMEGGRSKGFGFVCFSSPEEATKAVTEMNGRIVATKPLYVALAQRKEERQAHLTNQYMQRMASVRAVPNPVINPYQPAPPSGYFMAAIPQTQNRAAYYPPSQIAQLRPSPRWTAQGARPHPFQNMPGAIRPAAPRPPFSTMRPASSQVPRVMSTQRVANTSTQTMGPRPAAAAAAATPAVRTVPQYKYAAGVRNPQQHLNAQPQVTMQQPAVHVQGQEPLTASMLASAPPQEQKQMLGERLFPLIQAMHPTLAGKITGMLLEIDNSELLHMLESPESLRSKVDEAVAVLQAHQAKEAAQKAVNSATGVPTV
Cytochrome P450 3A4, sequence (P08684 whole entry): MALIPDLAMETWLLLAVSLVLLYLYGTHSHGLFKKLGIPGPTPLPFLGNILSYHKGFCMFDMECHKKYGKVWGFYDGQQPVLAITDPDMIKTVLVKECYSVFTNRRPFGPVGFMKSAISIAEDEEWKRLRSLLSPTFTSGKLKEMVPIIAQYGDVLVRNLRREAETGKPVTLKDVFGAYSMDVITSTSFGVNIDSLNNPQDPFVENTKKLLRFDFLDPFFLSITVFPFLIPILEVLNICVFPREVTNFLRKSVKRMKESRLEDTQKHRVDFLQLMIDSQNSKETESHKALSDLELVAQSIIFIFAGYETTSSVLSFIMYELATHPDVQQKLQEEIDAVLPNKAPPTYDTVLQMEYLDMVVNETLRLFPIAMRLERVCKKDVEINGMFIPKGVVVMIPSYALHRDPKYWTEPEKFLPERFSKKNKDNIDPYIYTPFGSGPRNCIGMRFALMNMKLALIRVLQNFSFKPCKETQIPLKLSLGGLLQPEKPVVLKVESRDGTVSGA
Paired box protein Pax-8, sequence (Q06710 whole entry): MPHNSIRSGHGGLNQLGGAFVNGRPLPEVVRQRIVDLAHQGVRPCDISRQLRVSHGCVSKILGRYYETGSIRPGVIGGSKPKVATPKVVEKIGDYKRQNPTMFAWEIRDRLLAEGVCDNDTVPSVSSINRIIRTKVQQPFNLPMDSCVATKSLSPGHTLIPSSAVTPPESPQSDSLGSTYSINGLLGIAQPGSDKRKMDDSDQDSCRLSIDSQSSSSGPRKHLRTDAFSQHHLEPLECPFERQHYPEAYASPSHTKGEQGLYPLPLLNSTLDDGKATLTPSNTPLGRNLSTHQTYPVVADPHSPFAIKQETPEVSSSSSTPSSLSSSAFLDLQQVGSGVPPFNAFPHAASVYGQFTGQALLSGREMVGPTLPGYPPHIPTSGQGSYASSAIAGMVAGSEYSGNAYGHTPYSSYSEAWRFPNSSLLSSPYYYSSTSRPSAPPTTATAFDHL

As for `O=C(/C=C/c1ccc(-c2ccccc2[N+](=O)[O-])o1)c1ccco1`, the IC50 in assay [1] and in [2] was > 66 µM (inactive) each time.

`Sc1ncnc2c1ncn2C1CCCO1` (stereo unspecified): the IC50 in [1] and in assay [2] was > 66 µM (inactive) throughout.

Turning to `O=c1c2ccccc2nc(CSc2[nH]cnc3ncnc2-3)n1-c1ccc(Cl)c(Cl)c1`, the IC50 with H9c2 is > 79 µM (inactive).

For the molecule `COc1cc(C(=O)Nc2cccc(-c3nnc(-c4ccco4)o3)c2)ccc1OC(C)=O`, the IC50 in the assay on H9c2 was > 79 µM (inactive).

In the case of `COc1ccc(Nc2nc(Nc3ccc(OC)cc3OC)nc(N3CCN(C)CC3)n2)c(OC)c1`, the IC50 with H9c2 is > 79 µM (inactive).

A word on the EC50: it is the concentration giving half of the maximal effect. `COc1ccc(C(=O)Nc2ccc(-c3cn4ccsc4n3)cc2)cc1S(=O)(=O)N1CCOCC1`: the EC50 in assay [3] was > 120 µM (not active); in [4], > 120 µM (not active); in assay [5] it was 60.6 µM (active).

For `Clc1ccccc1CNc1nc2ccccc2n2cnnc12`, the EC50 in assay [3] was > 120 µM (not active); in assay [4], 14.2 µM (active); in assay [5] it was 35.8 µM (active).

Consider `Cc1ccc([N+](=O)[O-])cc1NC(=S)NC(=O)c1cccnc1`, for which the IC50 in [1] and in assay [2] was > 66 µM (inactive) throughout.

As to `O=C(N/N=C/c1cn(-c2ccccc2)nc1-c1cccnc1)c1cccnc1`, the IC50 in the assay on H9c2 is > 79 µM (inactive).

A word on the AC50: it is the concentration giving half of the maximal activity seen. For the molecule `Cc1ccc(C2(c3noc(CN4CCC(c5ccncc5)CC4)n3)CCCC2)cc1`, in assay [6], the AC50 is 772 nM (active). The EC50 in assay [7] was 19.7 µM (active); in [8], > 38 µM (not active).

Consider `CC(C)OC(=O)c1cccnc1N1CCN(c2cccc(Cl)c2)CC1`, for which the EC50 in assay [9] is 20.3 µM (active); at Streptokinase A it was 19.3 µM (active); with Streptococcus, > 150 µM (not active).

As for `O=C(COC(=O)Cn1[nH]c(=O)c2ccccc2c1=O)Nc1c(Cl)cccc1C(F)(F)F`, the IC50 with H9c2 is > 79 µM (inactive).

On to `NNC(=O)c1ccc(OCC2CC(c3ccc(Cl)cc3)=NO2)cc1` (stereo unspecified), for which the 50% effective concentration (EC50) (in [9]; at Streptokinase A; in the assay with Streptococcus) was > 150 µM (not active) in each case.

For `CCCN1C(=O)c2cc(C(=O)Nc3cccc(C(C)=O)c3)ccc2C1Nc1cccc(C(C)=O)c1` (stereo unspecified), in the assay with H9c2, the IC50 is > 79 µM (inactive).

Take `CC(C)C(NC(=O)c1cccs1)C(=O)NC1=NCCS1` (stereo unspecified): the IC50 in assay [1] and in [2] was > 66 µM (inactive) in each case.

As for `Cc1ccc(N(CC(N)=O)C2SC(=O)N(Cc3ccccc3)C2=O)cc1` (stereo unspecified), the IC50 in [1] and in [2] was > 66 µM (inactive) throughout.

On to `Nc1n[nH]c(SCc2cccc(Br)c2)n1`, for which the EC50 in assay [3], in assay [4] and in assay [5] was > 120 µM (not active) throughout.

As to `N#Cc1cc2cc3c(cc2nc1SCC(=O)N1CCOCC1)OCCO3`, the EC50 in [3] is > 120 µM (not active); in assay [5], 5.54 µM (active).

Consider `COc1ccc(/C=C/C(=O)NC(=S)NNC(=O)Cc2cccs2)cc1`, for which the EC50 was 2.45 µM (active) in [9], > 150 µM (not active) at Streptokinase A and 20.9 µM (active) in the assay with Streptococcus.

`COc1ccc(C(=O)C2CCCN(Cc3cccn3-c3ccccn3)C2)c(C)c1` (stereo unspecified): the EC50 was > 160 µM (inactive) in [7] and 0.706 µM (active) in [8].

As to `Cc1cc2cc(CNC(=O)c3ccc4c(c3)OCO4)ccc2n1C`, the IC50 in [1] and in assay [2] was > 66 µM (inactive) in each case.

Consider `CCN(c1ccccc1)S(=O)(=O)c1ccc(Cl)c(NC(=O)CN(C)C2CCN(C)CC2)c1`, for which the EC50 was 395 nM (active) in assay [10], > 150 µM (inactive) in assay [7], > 60 µM (not active) in assay [12] and 3.82 µM (active) in assay [8]. For the same molecule, the IC50 in assay [11] is 80.2 µM (active).

For `O=C(COC(=O)c1c2c(nc3ccccc13)/C(=C/c1cccc([N+](=O)[O-])c1)CCC2)NC1CCS(=O)(=O)C1` (stereo unspecified), the IC50 with H9c2 was 11.1 µM (active).

As for `CN(C)c1cc2c3ccccc3n(C)c2cc1N`, the figures for the IC50 in assay [11], in assay [1] and in assay [2] were 12.7 µM (active), > 66 µM (inactive) and 22.8 µM (inactive), respectively.

On to `CC(/C=C1\SC(=O)N(CC(=O)Nc2ccc(O)cc2)C1=O)=C\c1ccccc1`, for which the EC50 is 13.8 µM (active) in [9], > 150 µM (not active) at Streptokinase A and 31.1 µM (active) with Streptococcus. Moreover, the AC50 on Paired box protein Pax-8 was 64.3 µM (active).

As to `O=C(NCCCCNC(=O)c1nc[nH]c1C(=O)Nc1cccc(Cl)c1)c1nc[nH]c1C(=O)Nc1cccc(Cl)c1`, the IC50 in the assay with H9c2 is > 79 µM (inactive).

Turning to `COc1ccc(/C=C/C(=O)NC(=S)N2CCN(c3ccccc3OC)CC2)cc1`, the EC50 in assay [9] is > 150 µM (not active); on Streptokinase A it was > 150 µM (not active); in assay [13] it was 1.67 µM (active); in the assay on H4 it was 7.91 µM (active); in the assay with Streptococcus, > 150 µM (not active); in [14] it was > 120 µM (not active).

Take `CN(C(=O)CC(NC(=O)c1ccccc1)(c1ccccc1)c1ccccc1)c1ccccc1`: the EC50 in assay [7] is 30.5 µM (active); in assay [8], 4.72 µM (active). The AC50 at Cytochrome P450 3A4 was 708 nM (inconclusive).
